# Source: publication PMC12040169 (PLOS Biology, 2025)
# Experiment: in vitro
# Settings: human, hela cells, % viability
smiles,measurement,value
Cc1cc(Cl)cc(Cl)c1S(=O)(=O)Nc1nc(-c2cccc([N+](=O)[O-])c2)cs1 [CBK000902],"viability at 28.5 h, 10 µM",111%
Cc1cc(NS(=O)(=O)c2ccccc2Br)n(C)n1 [CBK067376],"viability at 28.5 h, 10 µM",102%
C#CCn1cc(CN2CCc3c(nc(C)[nH]c3=O)C2)c2ccccc21 [CBK282382],"viability at 28.5 h, 10 µM",102%
O=C(NCCc1cccs1)Nc1cc(C(F)(F)F)cc(C(F)(F)F)c1 [CBK043718],"viability at 28.5 h, 10 µM",91.1%
O=C(O)C1CC(=O)N(CCc2ccccc2)/C(=N/CCc2ccccc2)S1 (centres unmarked) [CBK265558],"viability at 28.5 h, 10 µM",89.2%
O=C(CN1C(=O)COc2ccccc21)NCc1ccco1 [CBK269682],"viability at 28.5 h, 10 µM",94.8%
O=C(NCc1ccccn1)c1cnn2c(C(F)(F)F)cc(-c3cccs3)nc12 [CBK268195],"viability at 28.5 h, 10 µM",99.9%
O=S(=O)(c1cccc(C(F)(F)F)c1)N1CCN(Cc2ccc3c(c2)OCO3)CC1 [CBK074594],"viability at 28.5 h, 10 µM",89.8%
CS(=O)(=O)c1ccc(-c2ccc(C(=O)NCc3cccc(C(F)(F)F)c3)cn2)cc1 [CBK158874],"viability at 28.5 h, 10 µM",91.4%
CCc1nc(C)ccc1OCC(O)CNC(C)(C)C (centres unmarked) [CBK019698],"viability at 28.5 h, 10 µM",94.3%
Cn1ncnc1CCNS(=O)(=O)c1cccc(C(=O)N2CCCCC2)c1 [CBK306731],"viability at 28.5 h, 10 µM",101%
Cc1ccc(Cn2c(OCCN(C)C)nc3c2c(=O)n(C)c(=O)n3C)cc1 [CBK134241],"viability at 28.5 h, 10 µM",89.3%
Nn1cnn2c(SCCSC3CCCCC3)nnc12 [CBK263192],"viability at 28.5 h, 10 µM",108%
COc1ccc(Br)cc1CN1CCC(N2CCN(c3ccccc3OC)CC2)CC1 [CBK264681G],"viability at 28.5 h, 10 µM",88.4%
COC(=O)C(=O)N1CC[C@H]2NC(=O)N(c3ccc(C(C)C)cc3)C(=O)[C@H]21 [CBK289287],"viability at 28.5 h, 10 µM",105%
O=C1N(Cc2cccc3ccccc23)c2ccccc2C1(c1ccc(O)cc1)c1ccc(O)cc1 [CBK261410],"viability at 28.5 h, 10 µM",88.4%
Cc1cc(C[C@@H]2CCC[C@H]2NCc2c(C)nn(C(C)C)c2C)on1 [CBK285453],"viability at 28.5 h, 10 µM",98.3%
CC(C)c1ccc(Cc2cnc(NC(=O)c3cc(Br)cs3)s2)cc1 [CBK300503],"viability at 28.5 h, 10 µM",88.7%
N#Cc1c(NC(=O)c2cc(S(=O)(=O)N3CCOCC3)cs2)sc2c1CCCC2 [CBK264532],"viability at 28.5 h, 10 µM",102%
COc1ccccc1CN(C)C(C)C(=O)Nc1sccc1C(N)=O (centres unmarked) [CBK306466],"viability at 28.5 h, 10 µM",109%
O=C(Nc1cncc(OC2CCNCC2)n1)c1cnccn1 [CBK036372T],"viability at 28.5 h, 10 µM",93%
COc1ccc(CCNC(=O)N2CCC(C(=O)O)CC2)cc1OC [CBK161404],"viability at 28.5 h, 10 µM",110%
COc1ccc(CN2CCCN(c3ccnc(OCC4COc5ccccc5O4)n3)CC2)cc1 (centres unmarked) [CBK083234T],"viability at 28.5 h, 10 µM",96.8%
CN(C)CCN1CCN(c2ccc(-c3ccsc3)cn2)CC1 [CBK036915],"viability at 28.5 h, 10 µM",96.2%
CCCCS(=O)(=O)N1CCN(CCc2ccccc2)CC1 [CBK270316],"viability at 28.5 h, 10 µM",87.3%
CC1=NN(C(=O)CSCc2ccccc2)C(O)(c2ccc(Cl)cc2)C1 (centres unmarked) [CBK267136],"viability at 28.5 h, 10 µM",92.7%
CC(C)c1ccc(S(=O)(=O)N(c2ccccc2)C2CCNCC2)cc1 [CBK165088T],"viability at 28.5 h, 10 µM",108%
CC12CCC(C(=O)N(CC(O)Cn3c4ccc(Br)cc4c4cc(Br)ccc43)C1=O)C2(C)C (centres unmarked) [CBK262449],"viability at 28.5 h, 10 µM",94.4%
O=C(c1ccccc1)n1c(=S)nc2n(c1=S)CCN2 [CBK021794],"viability at 28.5 h, 10 µM",84.3%
NC(=O)CN1CCCN(c2ccnc(OCCN3CCOCC3)n2)CC1 [CBK083804],"viability at 28.5 h, 10 µM",89.9%
CSC1CCC(N(C)C(=O)NCCc2cn3cccc(C)c3n2)C1 (centres unmarked) [CBK305324],"viability at 28.5 h, 10 µM",84.5%
Cc1nn(C)cc1-c1cncn1CCCC(C)(C)CO [CBK281492],"viability at 28.5 h, 10 µM",86.1%
CS(=O)(=O)N[C@H]1CO[C@H]2[C@@H]1OC[C@H]2OC(=O)Nc1cccc2ccccc12 [CBK289469],"viability at 28.5 h, 10 µM",89%
COC(=O)CCC(=O)Nc1ccc(S(N)(=O)=O)cc1 [CBK261351],"viability at 28.5 h, 10 µM",88.1%
CCCCOc1ccc(-c2nnn(CC(=O)Nc3ccccc3)n2)cc1 [CBK070609],"viability at 28.5 h, 10 µM",90.2%
